EP0181471A1, “Pyrazole derivatives, process for their preparation and medicaments containing them” (LUDWIG HEUMANN & CO GMBH, priority 1984, dated 1986)

Test system: Histamin-H2-Rezeptoren
Assay: Inhibition of histamine-stimulated gastric acid secretion in the conscious fistula cat
Assay type: in vivo
Settings: wache Fistelkatze; Stimulator: Histamin; i.V.
Excerpt: Weiterhin kann die H2-antagonistische Wirkung an wachen Heidennain-Pouch-Hunden nach der Methode von Black et al., "Nature" 236, 385 (1972) und an wachen Fistelkatzen gezeigt werden.

CN=C(NC#N)NCCSCc1nc[nH]c1C [CIMETIDIN, Cimetidin] was tested, and the ID50 was 1,4 umol/k^g.
